In US10030020B2, “Spirocycle compounds and methods of making and using same” (Abide Therapeutics, Inc., priority 2016, dated 2018) one finds inhibition and IC50 data, which are given here for 18 compounds.

What all share (assay type): biochemical
The target of one assay is FAAH (Mus musculus (Mouse), UniProt O08914). The assay can be described thus: In vitro competitive activity-based protein profiling (mouse brain membrane fraction or cell lysates), FAAH band. The following applies: mouse proteome; for inhibition at 1 µM: read-out: FAAH % Inh 1 μM (mouse); for IC50: competitive ABPP. A digest of the protocol: (§1)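 Competitive ABPP: proteome 1.0 mg/mL protein + inhibitor, 30 min, 37° C; FP-Rh probe (stock 50 μM in DMSO) added, 30 min, 37° C; SDS quench, SDS-PAGE, fluorescent band intensity read.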
Chain of FAAH (O08914 whole entry): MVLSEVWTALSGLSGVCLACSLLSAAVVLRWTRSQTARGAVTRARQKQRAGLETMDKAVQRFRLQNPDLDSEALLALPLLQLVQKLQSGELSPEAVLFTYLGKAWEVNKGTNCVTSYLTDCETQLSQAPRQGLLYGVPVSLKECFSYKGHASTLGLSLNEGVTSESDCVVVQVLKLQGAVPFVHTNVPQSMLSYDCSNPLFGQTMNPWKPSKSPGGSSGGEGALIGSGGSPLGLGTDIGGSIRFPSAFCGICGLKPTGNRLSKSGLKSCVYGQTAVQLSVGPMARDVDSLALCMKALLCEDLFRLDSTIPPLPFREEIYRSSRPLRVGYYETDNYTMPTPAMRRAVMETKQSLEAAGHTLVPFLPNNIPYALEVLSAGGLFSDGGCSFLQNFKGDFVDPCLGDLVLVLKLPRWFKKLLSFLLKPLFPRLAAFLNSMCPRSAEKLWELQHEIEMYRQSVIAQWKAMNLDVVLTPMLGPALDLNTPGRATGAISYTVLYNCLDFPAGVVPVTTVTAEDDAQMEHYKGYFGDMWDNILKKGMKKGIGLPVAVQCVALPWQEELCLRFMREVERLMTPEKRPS

For the next assay, the target named is ABHD6 (Mus musculus (Mouse), UniProt Q8R2Y0). The assay can be described thus: In vitro competitive activity-based protein profiling (mouse brain membrane fraction or cell lysates), ABHD6 band. As to conditions: mouse proteome; for inhibition at 1 µM: read-out: ABHD6 % Inh 1 μM (mouse); for IC50: competitive ABPP. A digest of the protocol:
as §1

A further assay concerns the target MAGL (Mus musculus (Mouse), UniProt O35678). The assay can be described thus: In vitro competitive activity-based protein profiling (mouse brain membrane fraction or cell lysates), MAGL band. The following applies: mouse proteome; for inhibition at 1 µM: read-out: MAGL % Inh 1 μM (mouse); for IC50: competitive ABPP. Here is the method: In Vitro Competitive Activity-Based Protein Profiling.
Proteomes (mouse brain membrane fraction or cell lysates) (50 μL, 1.0 mg/mL total protein concentration) were preincubated with varying concentrations of inhibitors at 37° C. After 30 min, FP—Rh (1.0 μL, 50 μM in DMSO) was added and the mixture was incubated for another 30 min at 37° C. Reactions were quenched with SDS loading buffer (50 μL-4×) and run on SDS-PAGE.

Each structure is given as a SMILES string. Some results are limits rather than exact numbers.

Chain of MAGL (O35678 whole entry): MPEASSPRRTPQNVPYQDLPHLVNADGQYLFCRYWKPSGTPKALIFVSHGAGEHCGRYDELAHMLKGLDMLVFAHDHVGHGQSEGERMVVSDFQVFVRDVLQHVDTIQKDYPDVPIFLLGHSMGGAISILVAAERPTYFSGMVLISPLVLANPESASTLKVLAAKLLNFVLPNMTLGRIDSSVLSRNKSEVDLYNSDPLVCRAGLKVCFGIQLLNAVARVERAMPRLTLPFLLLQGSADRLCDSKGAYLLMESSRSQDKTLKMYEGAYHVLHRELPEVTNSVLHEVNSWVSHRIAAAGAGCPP
Chain of ABHD6 (Q8R2Y0 whole entry): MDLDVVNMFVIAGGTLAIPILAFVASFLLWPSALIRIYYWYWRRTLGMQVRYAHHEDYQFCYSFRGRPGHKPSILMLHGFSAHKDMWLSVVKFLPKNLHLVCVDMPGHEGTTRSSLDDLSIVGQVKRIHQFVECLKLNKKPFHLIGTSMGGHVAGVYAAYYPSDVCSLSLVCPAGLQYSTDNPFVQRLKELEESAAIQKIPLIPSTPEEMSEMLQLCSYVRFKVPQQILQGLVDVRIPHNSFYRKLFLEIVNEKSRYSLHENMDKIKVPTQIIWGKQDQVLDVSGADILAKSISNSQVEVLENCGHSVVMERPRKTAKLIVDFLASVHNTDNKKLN

As usually defined, the IC50 is the point on the concentration scale where inhibition reaches its midpoint. A lower IC50 goes with greater potency. `O=C(OC(C(F)(F)F)C(F)(F)F)N1CCC2(CCN(Cc3cccc4c3CN(C3CC3)CC4)C2)CC1` [Example 163, 1,1,1,3,3,3-Hexafluoropropan-2-yl 2-((2-cyclopropyl-1,2,3,4-tetrahydroisoquinolin-8-yl)methyl)-2,8-diazaspiro[4.5]decane-8-carboxylate]: the inhibition at 1 µM on FAAH was less than 25%; at ABHD6, 25 to 75%; on MAGL, more than 75%. For the same compound, the IC50 on FAAH is more than 1000 nM; on ABHD6 it was 100 to 1000 nM; on MAGL, less than 100 nM.
As for `CC(C)CN1CCc2cccc(CN3CCC4(CCN(C(=O)OC(C(F)(F)F)C(F)(F)F)CC4)C3)c2C1` [Example 164, 1,1,1,3,3,3-Hexafluoropropan-2-yl 2-((2-isobutyl-1,2,3,4-tetrahydroisoquinolin-8-yl)methyl)-2,8-diazaspiro[4.5]decane-8-carboxylate], the results for the inhibition at 1 µM at FAAH, on ABHD6 and at MAGL were less than 25%, not below 75% and more than 75%, respectively. In addition, the IC50 at FAAH was more than 1000 nM; at ABHD6, 100 to 1000 nM; at MAGL it was less than 100 nM.
For `CN1CCC(Oc2cc(C(F)(F)F)ccc2CN2CCCC23CCN(C(=O)OC(C(F)(F)F)C(F)(F)F)CC3)CC1` [Example 165, 1,1,1,3,3,3-Hexafluoropropan-2-yl 1-(2-(1-methylpiperidin-4-yloxy)-4-(trifluoromethyl)benzyl)-1,8-diazaspiro[4.5]decane-8-carboxylate], the inhibition at 1 µM at FAAH is less than 25%; at ABHD6, 25 to 75%; on MAGL it was more than 75%. Further, the IC50 is more than 1000 nM at FAAH, more than 1000 nM at ABHD6 and less than 100 nM on MAGL.
With `O=C(COc1cc(C(F)(F)F)ccc1CN1CCCC12CCN(C(=O)OC(C(F)(F)F)C(F)(F)F)CC2)N1CCCC1` [Example 167, 1,1,1,3,3,3-Hexafluoropropan-2-yl 1-(2-(2-oxo-2-(pyrrolidin-1-yl)ethoxy)-4-(trifluoromethyl)benzyl)-1,8-diazaspiro[4.5]decane-8-carboxylate], the figures for the inhibition at 1 µM at FAAH, at ABHD6 and at MAGL were less than 25%, 25 to 75% and more than 75%, respectively. The IC50 is more than 1000 nM at FAAH, more than 1000 nM on ABHD6 and less than 100 nM at MAGL.
`O=C(OC(C(F)(F)F)C(F)(F)F)N1CCC2(CCCN2Cc2ccc(C(F)(F)F)cc2OC2CCOCC2)CC1` [Example 169, 1,1,1,3,3,3-Hexafluoropropan-2-yl 1-(2-(tetrahydro-2H-pyran-4-yloxy)-4-(trifluoromethyl)benzyl)-1,8-diazaspiro[4.5]decane-8-carboxylate]: the inhibition at 1 µM on FAAH is less than 25%; on ABHD6, 25 to 75%; on MAGL, more than 75%. In addition, the IC50 was more than 1000 nM on FAAH, more than 1000 nM at ABHD6 and less than 100 nM on MAGL.
Take `O=C(OC(C(F)(F)F)C(F)(F)F)N1CCC2(CCCN2Cc2ccc(C(F)(F)F)cc2Oc2nc3ccccc3s2)CC1` [Example 171, 1,1,1,3,3,3-Hexafluoropropan-2-yl 1-(2-(benzo[d]thiazol-2-yloxy)-4-(trifluoromethyl)benzyl)-1,8-diazaspiro[4.5]decane-8-carboxylate]: the inhibition at 1 µM on FAAH is less than 25%; at ABHD6, less than 25%; at MAGL, more than 75%. In addition, the figures for the IC50 on FAAH, at ABHD6 and on MAGL were more than 1000 nM, more than 1000 nM and 100 to 1000 nM, respectively.
`O=C(OC(C(F)(F)F)C(F)(F)F)N1CCC2(CCCN2Cc2ccc(C(F)(F)F)cc2OC2CCS(=O)(=O)CC2)CC1` [Example 175, 1,1,1,3,3,3-Hexafluoropropan-2-yl 1-(2-((1,1-dioxidotetrahydro-2H-thiopyran-4-yl)oxy)-4-(trifluoromethyl)benzyl)-1,8-diazaspiro[4.5]decane-8-carboxylate]: the values for the inhibition at 1 µM at FAAH, on ABHD6 and at MAGL were less than 25%, less than 25% and more than 75%, respectively. Moreover, the IC50 at FAAH was more than 1000 nM; at ABHD6, more than 1000 nM; on MAGL, less than 100 nM.
`NC(=O)c1ccc(CN2CCCC23CCN(C(=O)OC(C(F)(F)F)C(F)(F)F)CC3)cc1C(F)(F)F` [Example 181, 1,1,1,3,3,3-Hexafluoropropan-2-yl 1-(4-carbamoyl-3-(trifluoromethyl)benzyl)-1,8-diazaspiro[4.5]decane-8-carboxylate]: the inhibition at 1 µM on FAAH was less than 25%; on ABHD6 it was 25 to 75%; at MAGL it was more than 75%. Further, the results for the IC50 on FAAH, on ABHD6 and at MAGL were more than 1000 nM, 100 to 1000 nM and less than 100 nM, respectively.
`CC1(C)CC2(CCN(C(=O)OC(C(F)(F)F)C(F)(F)F)CC2)CN1Cc1cccc(N2CCOCC2)c1Cl` [Example 185, 1,1,1,3,3,3-hexafluoropropan-2-yl 2-(2-chloro-3-morpholinobenzyl)-3,3-dimethyl-2,8-diazaspiro[4.5]decane-8-carboxylate]: the inhibition at 1 µM on FAAH was less than 25%; at ABHD6 it was not below 75%; on MAGL, more than 75%. Further, the IC50 at FAAH was more than 1000 nM; on ABHD6, 100 to 1000 nM; at MAGL, 100 to 1000 nM.
In the case of `CC1(C)CC2(CCN(C(=O)OC(C(F)(F)F)C(F)(F)F)CC2)CN1Cc1cc(Cl)cc(N2CCOCC2)c1` [Example 186, 1,1,1,3,3,3-Hexafluoropropan-2-yl 2-(3-chloro-5-morpholinobenzyl)-3,3-dimethyl-2,8-diazaspiro[4.5]decane-8-carboxylate], the inhibition at 1 µM was less than 25% at FAAH, 25 to 75% at ABHD6 and more than 75% on MAGL. Besides, the IC50 was more than 1000 nM at FAAH, 100 to 1000 nM at ABHD6 and 100 to 1000 nM on MAGL.
For `CC1(C)CC2(CCN(C(=O)OC(C(F)(F)F)C(F)(F)F)CC2)CN1Cc1cc(Cl)ccc1N1CCOCC1` [Example 187, 1,1,1,3,3,3-Hexafluoropropan-2-yl 2-(5-chloro-2-morpholinobenzyl)-3,3-dimethyl-2,8-diazaspiro[4.5]decane-8-carboxylate], the inhibition at 1 µM is less than 25% on FAAH, not below 75% on ABHD6 and more than 75% on MAGL. The IC50 on FAAH is more than 1000 nM; at ABHD6 it was 100 to 1000 nM; at MAGL, less than 100 nM.
On to `CC1(C)CC2(CCN(C(=O)OC(C(F)(F)F)C(F)(F)F)CC2)CN1Cc1cc(N2CCOCC2)cc(C(F)(F)F)c1` [Example 188, 1,1,1,3,3,3-Hexafluoropropan-2-yl 3,3-dimethyl-2-(3-morpholino-5-(trifluoromethyl)benzyl)-2,8-diazaspiro[4.5]decane-8-carboxylate], for which the inhibition at 1 µM on FAAH was less than 25%; on ABHD6, 25 to 75%; on MAGL, more than 75%. Further, the 50% inhibitory concentration (IC50) at FAAH was more than 1000 nM; at ABHD6, 100 to 1000 nM; at MAGL, 100 to 1000 nM.
As for `CC1(C)CC2(CCN(C(=O)OC(C(F)(F)F)C(F)(F)F)CC2)CN1Cc1cccc(OC(F)(F)F)c1N1CCOCC1` [Example 190, 1,1,1,3,3,3-Hexafluoropropan-2-yl 3,3-dimethyl-2-(2-morpholino-3-(trifluoromethoxy)benzyl)-2,8-diazaspiro[4.5]decane-8-carboxylate], the inhibition at 1 µM at FAAH is less than 25%; on ABHD6 it was less than 25%; on MAGL, more than 75%. The IC50 on FAAH is more than 1000 nM; on ABHD6, more than 1000 nM; on MAGL, less than 100 nM.
For `CC1(C)CC2(CCN(C(=O)OC(C(F)(F)F)C(F)(F)F)CC2)CN1Cc1cccc(CN2CCOCC2)c1F` [Example 191, 1,1,1,3,3,3-Hexafluoropropan-2-yl 2-(2-fluoro-3-(morpholinomethyl)benzyl)-3,3-dimethyl-2,8-diazaspiro[4.5]decane-8-carboxylate], the results for the inhibition at 1 µM on FAAH, at ABHD6 and at MAGL were less than 25%, 25 to 75% and more than 75%, respectively. Further, the values for the IC50 at FAAH, at ABHD6 and at MAGL were more than 1000 nM, more than 1000 nM and 100 to 1000 nM, respectively.
As to `CC1(C)CC2(CCN(C(=O)OC(C(F)(F)F)C(F)(F)F)CC2)CN1Cc1cc(CN2CCOCC2)ccc1OC(F)(F)F` [Example 192, 1,1,1,3,3,3-Hexafluoropropan-2-yl 3,3-dimethyl-2-(5-(morpholinomethyl)-2-(trifluoromethoxy)benzyl)-2,8-diazaspiro[4.5]decane-8-carboxylate], the inhibition at 1 µM was less than 25% on FAAH, 25 to 75% on ABHD6 and more than 75% at MAGL. Also, the IC50 at FAAH was more than 1000 nM; at ABHD6, 100 to 1000 nM; on MAGL, less than 100 nM.
With `O=C(O)C1CCN(c2cc(CN3CCCC34CCN(C(=O)OC(C(F)(F)F)C(F)(F)F)CC4)cc(OC(F)(F)F)c2)CC1` [Example 207], the inhibition at 1 µM on FAAH was less than 25%; on ABHD6 it was less than 25%; at MAGL, more than 75%.
With `O=C(O)[C@@H]1CCCN(c2cc(CN3CCC4(CCN(C(=O)OC(C(F)(F)F)C(F)(F)F)CC4)C3)cc(C(F)(F)F)c2)C1` [Example 208], the results for the inhibition at 1 µM on FAAH, on ABHD6 and at MAGL were less than 25%, not below 75% and more than 75%, respectively.
On the same counts, the results for `O=C(O)[C@@H]1CCCN(c2cc(CN3CCCC34CCN(C(=O)OC(C(F)(F)F)C(F)(F)F)CC4)cc(C(F)(F)F)c2)C1` [Example 212] are less than 25%, less than 25% and more than 75%.
